# Data: US20100137312A1, “NOVEL AROMATIC HETEROCYCLIC CARBOXYLIC ACID AMIDE DERIVATIVES USEFUL AS POTASSIUM CHANNEL MODULATORS” (neuroSearch A/S, priority 2007, published 2010)
# Assays:
# [1] = molecular target: T1, BK channels heterologously expressed in Xenopus laevis oocytes (Homo sapiens, UniProt Q12791); assay: BK channel opening activity, two-electrode voltage clamp, left-shift of the BK activation curve; type: cell-based; details: 0.01-31.6 μM compound, sigmoidal logistic fit; for EC50: ΔV at control conductance level of +100 mV, read-out: EC50 for the left-shift of the BK activation curve (ΔV vs. concentration)
# T1 construct: expressed in transfected cells; host or cells: Xenopus laevis oocytes
# Description: In this example the BK channel opening activity of Compound 2 (FIGS. 1A and 1B), Compound 1 (FIGS. 2A and 2B) and Compound 9 (FIGS. 3A and 3B) is determined using BK channels heterologously expressed in Xenopus laevis oocytes.
# The electrical current through the BK channel is measured using conventional two-electrode voltage clamp. BK currents are activated by repeating ramp protocols. In brief, the membrane potential is continuously changed from −120 mV to +120 mV within 2 s. The threshold for BK activation is approximately +30 mV under control conditions. Compounds are applies for 100 s during which the ramp protocol is repeated 10 times with 10 s intervals. In between the ramp protocols the membrane potential is clamped at −80 mV. The first three compound applications are control blanks where the current level is allowed to stabilize. In the subsequent 8 applications increasing concentrations (0.01-31.6 μM) of compound is applied and a marked increase in the current level at depolarizing potentials is observed.
# In order to evaluate the ability of the compounds to shift the BK activation curve towards lower membrane potentials, the BK current was transformed into conductance by using Ohm's law g=I/(Ememb−Erev), where g is the conductance, I is the current, Ememb is the membrane potential and Erev is the reversal potential. The extracellular solution for these experiments contains 2.5 mM K^+and the intracellular K^+concentration of an oocyte is estimated to be 100 mM. Under those conditions, Nernst equation predicts a reversal potential of Erev=−93.2 mV. The control conductance level at a membrane potential of +100 mV was calculated, and the compound effect was evaluated as the potential difference, ΔV, to the membrane potential at which the same conductance level was obtained in the presence of compound.
# The concentration response curve for this potential difference was fitted to the sigmoidal logistic equation: ΔV=ΔVmax/(1+(EC50/[compound])^n), where ΔVmax represents the maximal left shift of the BK activation curve, EC50 is the concentration causing a half maximal response, and n is the slope coefficient.
# T1 sequence (Q12791 whole entry): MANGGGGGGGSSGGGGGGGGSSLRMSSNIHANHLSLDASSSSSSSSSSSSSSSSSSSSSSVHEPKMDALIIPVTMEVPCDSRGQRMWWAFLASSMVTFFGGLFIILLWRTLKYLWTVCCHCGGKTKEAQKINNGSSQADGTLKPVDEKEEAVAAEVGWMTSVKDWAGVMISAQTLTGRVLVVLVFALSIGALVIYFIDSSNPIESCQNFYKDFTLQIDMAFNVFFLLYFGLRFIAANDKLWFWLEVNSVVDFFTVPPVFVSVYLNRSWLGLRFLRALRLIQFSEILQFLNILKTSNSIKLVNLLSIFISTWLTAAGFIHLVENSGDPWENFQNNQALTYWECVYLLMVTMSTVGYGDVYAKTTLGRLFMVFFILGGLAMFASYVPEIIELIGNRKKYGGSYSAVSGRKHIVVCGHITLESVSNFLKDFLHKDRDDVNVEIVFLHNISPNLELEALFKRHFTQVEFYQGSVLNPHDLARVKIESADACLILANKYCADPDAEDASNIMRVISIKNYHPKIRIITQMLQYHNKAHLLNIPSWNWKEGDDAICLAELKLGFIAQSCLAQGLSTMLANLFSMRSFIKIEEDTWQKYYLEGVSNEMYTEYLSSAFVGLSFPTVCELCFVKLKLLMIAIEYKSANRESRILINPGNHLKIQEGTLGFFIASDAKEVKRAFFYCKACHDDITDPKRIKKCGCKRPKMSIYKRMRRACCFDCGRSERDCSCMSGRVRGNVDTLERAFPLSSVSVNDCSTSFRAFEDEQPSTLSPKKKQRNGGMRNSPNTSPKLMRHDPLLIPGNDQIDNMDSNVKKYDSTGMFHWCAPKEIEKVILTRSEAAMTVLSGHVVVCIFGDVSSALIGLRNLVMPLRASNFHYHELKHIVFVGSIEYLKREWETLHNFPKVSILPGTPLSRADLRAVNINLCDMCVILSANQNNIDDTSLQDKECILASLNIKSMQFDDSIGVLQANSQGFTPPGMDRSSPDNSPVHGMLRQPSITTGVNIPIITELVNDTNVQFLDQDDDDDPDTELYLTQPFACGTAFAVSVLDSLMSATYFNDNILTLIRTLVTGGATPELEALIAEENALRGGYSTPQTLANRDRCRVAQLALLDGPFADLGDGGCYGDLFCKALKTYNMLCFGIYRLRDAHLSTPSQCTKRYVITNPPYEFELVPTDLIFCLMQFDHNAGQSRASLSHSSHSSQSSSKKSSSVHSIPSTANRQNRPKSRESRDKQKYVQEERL
melting point [°C],maximal left-shift of the BK activation curve (ΔVmax) [1] [mV],EC50 [1] [nM],SMILES
248.1 to 250.9,–,–,"Cc1oc(-c2ccc(Cl)cc2)cc1C(=O)Nc1cc(Cl)ccc1-c1noc(=O)[nH]1 [Compound 20, 5-(4-Chloro-phenyl)-2-methyl-furan-3-carboxylic acid [5-chloro-2-(5-oxo-4,5-dihydro-[1,2,4]oxadiazol-3-yl)-phenyl]-amide]"
325 to 337.2,−99,970,"Cc1nc(-c2ccc(C(F)(F)F)cc2)sc1C(=O)Nc1cc(Cl)ccc1-c1nnn[nH]1 [Compound 9, 4-Methyl-2-(4-trifluoromethyl-phenyl)-thiazole-5-carboxylic acid [5-chloro-2-(1H-tetrazol-5-yl)-phenyl]-amide]"
246.7 to 255.4,–,–,"Cc1oc(-c2ccc(Cl)cc2)cc1C(=O)Nc1cc(Cl)ccc1-c1nnn[nH]1 [Compound 12, 5-(4-Chloro-phenyl)-2-methyl-furan-3-carboxylic acid [5-chloro-2-(1H-tetrazol-5-yl)-phenyl]-amide]"
337.2 to 340.2,–,–,"O=C(O)c1cc(F)c(F)cc1NC(=O)c1cc(-c2ccc(Cl)cc2)oc1C(F)(F)F [Compound 13, 2-{[5-(4-Chloro-phenyl)-2-trifluoromethyl-furan-3-carbonyl]-amino}-4,5-difluoro-benzoic acid]"

# Second part, the compound before the results:
SMILES,melting point [°C],maximal left-shift of the BK activation curve (ΔVmax) [1] [mV],EC50 [1] [nM]
"O=C(Nc1cc(Cl)ccc1-c1nnn[nH]1)c1cnn(-c2ccc(Cl)cc2)c1C(F)(F)F [Compound 2, 1-(4-Chloro-phenyl)-5-trifluoromethyl-1H-pyrazole-4-carboxylic acid [5-chloro-2-(1H-tetrazol-5-yl)-phenyl]-amide]",176.3 to 180.4,−94,2400
"O=C(Nc1cc(Cl)ccc1OCc1nnn[nH]1)c1cc(-c2ccc(Cl)cc2)oc1C(F)(F)F [Compound 7, 5-(4-Chloro-phenyl)-2-trifluoromethyl-furan-3-carboxylic acid [5-chloro-2-(1H-tetrazol-5-ylmethoxy)-phenyl]-amide]",226.9 to 236.1,–,–
"CS(=O)(=O)NC(=O)c1ccc(Cl)cc1NC(=O)c1cc(-c2ccc(Cl)cc2)oc1C(F)(F)F [Compound 5, 5-(4-Chloro-phenyl)-2-trifluoromethyl-furan-3-carboxylic acid (5-chloro-2-methanesulfonylaminocarbonyl-phenyl)-amide]",259 to 262,–,–
"O=C(Nc1cc(Cl)ccc1-c1nnn[nH]1)c1cc(-c2ccc(Cl)cc2)oc1C(F)(F)F [Compound 1, 5-(4-Chloro-phenyl)-2-trifluoromethyl-furan-3-carboxylic acid [5-chloro-2-(1H-tetrazol-5-yl)-phenyl]-amide]",–,−88,4400
